Format in all cases: cell-based, mouse
Test [1] has as its system 3T3-L1 adipocytes. The test can be described thus: Adipogenesis assay with inhibitors of intracellular signaling pathways (AdipoRed Assay Reagent). The protocol: In yet another experiment, to search for the involvement of intracellular signaling factors, the culture fluid was substituted with a culture fluid containing DMEM, which contained 10% FBS and insulin (10 µg/ml), and a vehicle (1% ethanol) or DHMBA (1 or 10 µM) two days after the differentiation culture. The cells were cultured for another two days in a culture fluid containing signaling inhibitory factors, such as genistein (1 or 10 µM), Wortmannin (10 or 100 nM), PD98059 (1 or 10 µM), or Bay 11-7082 (1 or 10 nM). After the cell culture, the amount of intracellular lipid (triglyceride) formation was quantified using AdipoRed Assay Reagent (Lonza, Walkersville, MD, USA) [19 to 21]. Fluorescence was measured at an excitation of 485 nm and an emission of 570 nm using a 96-well plate reader (µQuant, Bio-Tek Instruments).

Test [2] has as its system 3T3-L1 preadipocytes. The test can be described thus: Cell proliferation assay (count of living cells, trypan blue). The procedure: […] Furthermore, in an experiment to measure cell proliferation, 3T3-L1 preadipocytes (1 × 10^5/ml per well of a 24-well plate) were cultured for three days in a culture fluid containing a vehicle (1% ethanol as the final concentration) or DHMBA (0.1, 1, 10, 100, or 1000 µM).
(§1) After the culture, adhering cells were separated from each well by adding an aseptic solution containing 0.05% trypsin and EDTA (0.1 ml per well) in PBS (Thermo Fisher Scientific, Waltham, MA, USA) not containing Ca^2+/Mg^2+ and incubating the cells for two minutes. Afterward, 0.9 ml of DMEM containing 10% FBS was added to each well to prepare cell suspensions. In order to measure the number of living cells, a medium (0.1 ml) containing suspension cells was mixed with 0.1 ml of 0.5% trypan blue staining solution. The living cells were counted under a microscope (Olympus MTV-3) using a cell counter (Line Seiki H-102P, Tokyo, Japan) and a hemocytometer (Sigma-Aldrich, St. Louis, Missouri). Two counts were averaged in each measurement. The number of cells was shown as the number per well of a culture plate.

Test [3] has as its system 3T3-L1 preadipocytes. The test can be described thus: Cell death assay (number of cells after sub-confluence). Particulars: 1000 µM, another two days after sub-confluence (Fig. 2C). The protocol:
In an experiment to measure cell death, 3T3-L1 preadipocytes (1×10^5/ml per well of a 24-well plate) were cultured for three days in a DMEM culture fluid containing 10% BCS and 1% P/S. The cells that reached sub-confluence were cultured for another 48 hours in the presence of a vehicle (1% ethanol as the final concentration) or DHMBA (0.1, 1, 10, 100, or 1000 µM) to examine the variation in the number of cells.
as §1

Test [4] relates to 3T3-L1 preadipocytes. The test can be described thus: Number of cells in the differentiation process. Particulars: 1 or 10 µM. The protocol: In order to understand the influence of DHMBA on the differentiation of 3T3-L1 preadipocytes, 3T3-L1 preadipocytes (5×10^4 cells/ml per well of a 24-well plate) were cultured for three days, at which point they reached sub-confluence, in 10% bovine calf serum (BCS). After the cells reached sub-confluence (on day 0), the culture fluid was changed to a DMEM differentiation-inducing culture fluid containing 10% FBS, 1% P/S, 0.5 mM IBMX, 1 µM dexamethasone, and insulin (10 µg/ml), and the cells were cultured for another two days. Two days later, to promote adipogenesis, the culture fluid was replaced with a fresh differentiation culture fluid of DMEM containing 10% FBS and insulin (10 µg/ml), and the cells were cultured for another two days.
First, to quantify the effect of DHMBA on the number of cells, a vehicle (1% ethanol as the final concentration) or DHMBA (1 or 10 µM) was added to the differentiation-inducing culture fluid on day 0 of differentiation starting culture or after two days. After zero to two days of the differentiation culture or after two to four days of the culture, the number of cells adhered to a culture dish was measured as described in the previous section.

The subject of test [5] is 3T3-L1 adipocytes. The test can be described thus: Fat accumulation assay (Oil Red O staining). Particulars: 0.1, 1, 10, or 100 µM. The protocol:
In order to understand the influence of DHMBA on the differentiation of 3T3-L1 preadipocytes, 3T3-L1 preadipocytes (5×10^4 cells/ml per well of a 24-well plate) were cultured for three days, at which point they reached sub-confluence, in 10% bovine calf serum (BCS). After the cells reached sub-confluence (on day 0), the culture fluid was changed to a DMEM differentiation-inducing culture fluid containing 10% FBS, 1% P/S, 0.5 mM IBMX, 1 µM dexamethasone, and insulin (10 µg/ml), and the cells were cultured for another two days. […]
In an additional experiment to understand the effect of DHMBA on the content of lipids in 3T3-L1 adipocytes, a vehicle (1% ethanol as the final concentration) or DHMBA (0.1, 1, 10, or 100 µM) was included in the differentiation-inducing culture fluid to culture the cells from day 0 of the differentiation-inducing culture to four days later. In order to quantify the lipid content (triglycerides) after the cell culture, the cells in the 24-well plate were gently washed twice with PBS and fixed with 4% formaldehyde dissolved in PBS for 30 minutes. […] Furthermore, in order to quantify the lipid content, the Oil Red stain was extracted with isopropanol. […] The eluate was used to measure the absorbance at 510 nm with a spectrophotometer (µQuant, Bio-Tek Instruments).

Test [6] deals with 3T3-L1 adipocytes. Description: Adipogenesis assay (AdipoRed Assay Reagent). The following applies: 1, 10, or 100 µM. The protocol: 3T3-L1 preadipocytes (10^4 cells/0.2 ml per well of a 96-well plate) were cultured for three days, at which point they reached sub-confluence, in DMEM containing 10% BCS and 1% P/S. After the sub-confluence (on day 0), the cells were cultured in a differentiation-inducing culture fluid containing 10% FBS, 1% P/S, 0.5 mM IBMX, and 1 µM dexamethasone with the inclusion of a vehicle (1% ethanol as the final concentration) or DHMBA (0.1, 1, 10, or 100 µM). Two days later, the culture fluid was replaced with a DMEM culture fluid containing insulin (10 µg/ml) without containing 10% FBS or DHMBA, and then, the cells were cultured for another two days.
In another experiment, the cells were cultured in a differentiation culture fluid not containing DHMBA on day 0 of differentiation-inducing culture. Two days later, the culture fluid was replaced with a DMEM culture fluid containing 10% FBS and insulin (10 µg/ml) that contained any of a vehicle (1% ethanol as the final concentration) and DHMBA (0.1, 1, 10, or 100 µM), and then, the cells were cultured for another two days.

The subject of the next test is Akt. The test can be described thus: Western blotting of protein level in adipocytes. Particulars: DHMBA 10 µM, day 2 to 4 of differentiation (Fig. 7). The protocol: (§2) 3T3-L1 preadipocytes (1×10^6 cells/100 mm dish used, in 10 ml of culture fluid) were cultured for three days, at which point they reached sub-confluence, in DMEM containing 10% BCS and 1% P/S. Then, the cells were cultured for two days in a DMEM differentiation culture fluid containing 10% FBS, 1% P/S, 0.5 mM IBMX, and 1 µM dexamethasone. […] After the culture, the culture dish was washed three times with cold PBS (10 ml) to eliminate floating cells and dead cells, and adhering cells were scraped using a cell lysis solution containing protease and protein phosphatase inhibitors (Roche Diagnostics, Indianapolis, IN, USA). Next, the cell lysates were centrifuged for 10 minutes at 17,000 × g at 4°C. The concentration of proteins in the supernatant was quantified using Bio-Rad Protein Assay Dye (Bio-Rad Laboratories, Inc., Hercules, CA, USA) with bovine serum albumin as a standard. The extracted protein samples were stored at -80°C until they were used.
(§3) As indicated in the previous invention, a sample of 40 micrograms of supernatant proteins per lane was separated by SDS polyacrylamide gel electrophoresis (SDS-PAGE, 12%) and transferred to a PVDF membrane. Specific antibodies for target proteins, such as PPARγ (C26H12) (catalog No. 2435, rabbit antibody), C/EBPα (catalog No. 2295, rabbit), phosphoinositide 3-kinase p110α (PI3K; catalog No. 4255), Akt (catalog No. 9272, rabbit antibody), mitogen-activated protein kinase (MAPK; catalog No. 4695, rabbit antibody), phosphorylated MAPK (catalog No. […]) 4370, rabbit antibody), mechanistic target of rapamycin (mTOR, catalog No. 4517, mouse antibody), NF-κB p65 (catalog No. 3034, rabbit antibody), and β-actin (catalog No. 3700, rabbit antibody), were obtained from Cell Signaling Technology (Danvers, MA, USA). The PVDF membrane was incubated overnight at 4°C using the above protein antibodies for immunoblotting.
(§4) After the incubation, the PVDF membrane was incubated at room temperature for 60 minutes in a horseradish peroxidase-conjugated secondary antibody (Santa Cruz Biotechnology, Inc., mouse sc-2005 or rabbit sc-2305; 1:1,000 dilution). Protein bands transferred to the PVDF membrane were detected on an X-ray film using a chemiluminescent substrate (catalog No. 34577, Thermo Scientific, Rockford, IL, USA). Four independent experiments were conducted for data, their films were scanned with an Epson Perfection 1660 photo scanner, and the bands were quantified using ImageJ2 software (National Institutes of Health, Bethesda, MD, USA).

A further test concerns C/EBPα. The test can be described thus: Western blotting of protein level in adipocytes. Particulars: DHMBA 10 µM, day 2 to 4 of differentiation (Fig. 7). The protocol:
as §2, §3, §4

Another test relates to MAPK. Description: Western blotting of protein level in adipocytes. The following applies: DHMBA 10 µM, day 2 to 4 of differentiation (Fig. 7). The protocol: as §2, §3, §4
(In general: A western blot detects proteins with antibodies after separation by electrophoresis.)

The subject of a further test is NF-κB p65. The test can be described thus: Western blotting of protein level in adipocytes. Particulars: DHMBA 10 µM, day 2 to 4 of differentiation (Fig. 7). The protocol:
as §2, §3, §4

The test system of the next test is PI3 kinase 100α. The test can be described thus: Western blotting of protein level in adipocytes. Particulars: DHMBA 10 µM, day 2 to 4 of differentiation (Fig. 7). The procedure: as §2, §3, §4
For the next test, the system named is PPARγ. Description: Western blotting of protein level in adipocytes. Particulars: DHMBA 10 µM, day 2 to 4 of differentiation (Fig. 7). The procedure:
as §2, §3, §4

The subject of the next test is mTOR. Description: Western blotting of protein level in adipocytes. The following applies: DHMBA 10 µM, day 2 to 4 of differentiation (Fig. 7). The procedure:
as §2, §3, §4

For the next test, the system named is phosphorylated MAPK. Description: Western blotting of protein level in adipocytes. The following applies: DHMBA 10 µM, day 2 to 4 of differentiation (Fig. 7). The procedure:
as §2, §3, §4

The source of these data is patent EP4726029A1, “ADIPOCYTE GROWTH INHIBITOR” (Watanabe Oyster Laboratory Co., Ltd., priority 2023, dated 2024).

On to `Cc1ccc(S(=O)(=O)C=CC#N)cc1` [Bay 11-7082, reference compound], for which, in the test on 3T3-L1 adipocytes [1] (Bay 11-7082 1 or 10 nM (Fig. 6D)), the adipogenesis result is “inhibited”.
Regarding `COc1c(O)cc(CO)cc1O` [DHMBA, 3,5-dihydroxy-4-methoxybenzyl alcohol], the Cell proliferation entry in the test on 3T3-L1 preadipocytes [2] (DHMBA 10 µM, culture for three to five days (Fig. 2A)) is given as “suppressed”; in the test with 3T3-L1 preadipocytes [2] (cultured for three days, concentrations ranging from 1 µM to 1000 µM (Fig. 2B)), “suppressed”. Besides, the “number of cells (cell death)” value in the test on 3T3-L1 preadipocytes [3] is recorded as “reduced”. Besides, the number of cells entry in the test with 3T3-L1 preadipocytes [4] (day 0 to 2 in culture fluid with differentiation-inducing factors (Fig. 3B)) and in the test on 3T3-L1 preadipocytes [4] (day 2 to 4 in culture fluid containing insulin (Fig. 3C)) was “not varied” in each case. In addition, the “lipid accumulation (Oil Red O stained images)” value in the test on 3T3-L1 adipocytes [5] (on day 0 and after two days of differentiation culture (Fig. 4A)) is “reduced”. For the same compound, in the test with 3T3-L1 adipocytes [5] (on day 0 and after two days of differentiation culture (Fig. 4B)), the “lipid content in the cells (absorbance at 510 nm)” value is listed as “decrease”. Moreover, the adipogenesis result in the test with 3T3-L1 adipocytes [6] (two to four days after the differentiation, late stage (Fig. 5C)) is recorded as “suppression”; with 3T3-L1 adipocytes [6] (zero to four days after the differentiation (Fig. 5A)), “suppressed”; in the test on 3T3-L1 adipocytes [6] (zero to two days after the differentiation (Fig. 5B)), “suppression”; in the test with 3T3-L1 adipocytes [1] (DHMBA 1 or 10 µM in the presence of genistein (Fig. 6A)), “inhibited”. Also, the inhibition of adipogenesis entry in the test with 3T3-L1 adipocytes [1] (DHMBA 1 or 10 µM in the presence of Bay 11-7082 1 or 10 nM (Fig. 6D)), with 3T3-L1 adipocytes [1] (DHMBA 1 or 10 µM in the presence of PD98059 1 or 10 µM (Fig. 6C)) and in the test with 3T3-L1 adipocytes [1] (DHMBA 1 or 10 µM in the presence of Wortmannin 10 or 100 nM (Fig. 6B)) was “further enhanced” in each case. In the test on Akt, the “level of Akt” value is given as “reduction”. In addition, the “level of C/EBPα” value in the test on C/EBPα is on record as “reduced”. For the same compound, the “level of MAPK” value in the test on MAPK is reported as “reduction”. Further, the “level of NF-κB p65” value in the test on NF-κB p65 is on record as “reduced”. In addition, in the test with PI3 kinase 100α, the “level of PI3 kinase 100α” value was “reduction”. For the same compound, the “level of PPARγ” value in the test on PPARγ is “reduced”. In addition, the “level of mTOR” value in the test on mTOR was “reduction”. The “level of phosphorylated MAPK” value with phosphorylated MAPK is “reduction”.
Take `COc1cccc(-c2cc(=O)c3ccccc3o2)c1N` [PD98059, reference compound]: in the test with 3T3-L1 adipocytes [1] (PD98059 1 or 10 µM (Fig. 6C)), the adipogenesis entry is recorded as “inhibited”.
With `COC[C@H]1OC(=O)c2coc3c2[C@@]1(C)C1=C(C3=O)[C@@H]2CCC(=O)[C@@]2(C)C[C@H]1OC(C)=O` [Wortmannin, reference compound], the adipogenesis entry in the test with 3T3-L1 adipocytes [1] is reported as “inhibited”.
Take `O=c1c(-c2ccc(O)cc2)coc2cc(O)cc(O)c12` [genistein, reference compound]: the lipogenesis entry in the test on 3T3-L1 adipocytes [1] (genistein 1 or 10 µM alone, two days from day 2 of differentiation (Fig. 6A)) is on record as “not altered”.
